Key:
[1] = target: FGFR1 (Homo sapiens (Human), UniProt P11362); experiment: FGFR Enzymatic Assay (FRET peptide phosphorylation), FGFR1; details: read-out: FGFR1 IC50; pre-incubated for 4 hours
Description: (§1) The enzymes were purchased from Millipore or Invitrogen.
(§2) GraphPad prism3 was used to analyze the data. The IC50 values were derived by fitting the data to the equation for a sigmoidal dose-response with a variable slope. Y=Bottom+(Top−Bottom)/(1+10^((Log IC50−X)*HillSlope)) where X is the logarithm of concentration and Y is the response.

[2] = target: FGFR2 (Homo sapiens (Human), UniProt P21802); experiment: FGFR Enzymatic Assay (FRET peptide phosphorylation), FGFR2; details: read-out: FGFR2 IC50; pre-incubated for 4 hours
Description: as §1, §2

[3] = target: FGFR3 (Homo sapiens (Human), UniProt P22607); experiment: FGFR Enzymatic Assay (FRET peptide phosphorylation), FGFR3; details: read-out: FGFR3 IC50; pre-incubated for 4 hours
Sequence of FGFR3 (P22607 23-806): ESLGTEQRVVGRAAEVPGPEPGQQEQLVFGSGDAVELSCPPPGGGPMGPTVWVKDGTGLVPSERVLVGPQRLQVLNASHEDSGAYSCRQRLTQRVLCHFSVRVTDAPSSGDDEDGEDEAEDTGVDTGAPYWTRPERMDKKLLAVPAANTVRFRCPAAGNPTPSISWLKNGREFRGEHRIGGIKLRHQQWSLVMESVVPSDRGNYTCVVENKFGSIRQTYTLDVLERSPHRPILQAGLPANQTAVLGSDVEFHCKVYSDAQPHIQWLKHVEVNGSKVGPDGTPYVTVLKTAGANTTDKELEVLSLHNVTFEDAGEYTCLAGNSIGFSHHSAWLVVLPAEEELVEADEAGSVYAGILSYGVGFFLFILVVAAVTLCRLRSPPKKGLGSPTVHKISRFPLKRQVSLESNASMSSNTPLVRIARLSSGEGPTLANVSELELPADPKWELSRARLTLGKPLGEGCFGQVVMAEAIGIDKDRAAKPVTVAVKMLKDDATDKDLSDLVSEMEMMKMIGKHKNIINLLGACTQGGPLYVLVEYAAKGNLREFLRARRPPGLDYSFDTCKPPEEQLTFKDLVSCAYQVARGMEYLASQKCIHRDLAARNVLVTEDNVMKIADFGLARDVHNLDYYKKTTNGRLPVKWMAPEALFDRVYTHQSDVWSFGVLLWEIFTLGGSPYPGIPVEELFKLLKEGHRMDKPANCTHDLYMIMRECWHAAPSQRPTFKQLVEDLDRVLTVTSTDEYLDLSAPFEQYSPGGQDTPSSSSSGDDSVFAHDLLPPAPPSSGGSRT
Description: as §1, §2

[4] = target: FGFR4 (Homo sapiens (Human), UniProt P22455); experiment: FGFR Enzymatic Assay (FRET peptide phosphorylation), FGFR4; details: pre-incubated for 4 hours; for FGFR1/FGFR4 / FGFR2/FGFR4 / FGFR3/FGFR4: IC50 ratio showing FGFR4 selectivity
Sequence of FGFR4 (P22455 22-802): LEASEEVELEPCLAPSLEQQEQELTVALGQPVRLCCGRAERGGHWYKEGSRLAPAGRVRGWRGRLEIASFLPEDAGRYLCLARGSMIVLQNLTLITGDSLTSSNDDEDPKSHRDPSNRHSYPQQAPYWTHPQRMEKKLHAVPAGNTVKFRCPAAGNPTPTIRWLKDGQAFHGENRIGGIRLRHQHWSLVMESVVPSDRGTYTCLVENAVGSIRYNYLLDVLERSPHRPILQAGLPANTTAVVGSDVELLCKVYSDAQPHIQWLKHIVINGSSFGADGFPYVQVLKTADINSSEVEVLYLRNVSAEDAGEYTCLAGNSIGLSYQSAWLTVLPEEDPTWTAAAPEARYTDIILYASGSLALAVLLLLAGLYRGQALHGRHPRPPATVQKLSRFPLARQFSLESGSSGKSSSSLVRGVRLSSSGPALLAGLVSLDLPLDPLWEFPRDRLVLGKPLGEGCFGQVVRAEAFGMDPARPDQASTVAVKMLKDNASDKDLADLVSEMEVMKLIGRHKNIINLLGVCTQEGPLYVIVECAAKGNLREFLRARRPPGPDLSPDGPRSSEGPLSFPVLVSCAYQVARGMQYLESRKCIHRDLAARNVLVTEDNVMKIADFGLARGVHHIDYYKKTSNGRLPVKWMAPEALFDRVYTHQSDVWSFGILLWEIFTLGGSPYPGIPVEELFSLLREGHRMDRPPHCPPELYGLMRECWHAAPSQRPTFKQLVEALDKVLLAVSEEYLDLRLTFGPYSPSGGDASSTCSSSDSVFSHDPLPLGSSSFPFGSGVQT
Description: as §1, §2

Sequence of FGFR2 (P21802 22-821): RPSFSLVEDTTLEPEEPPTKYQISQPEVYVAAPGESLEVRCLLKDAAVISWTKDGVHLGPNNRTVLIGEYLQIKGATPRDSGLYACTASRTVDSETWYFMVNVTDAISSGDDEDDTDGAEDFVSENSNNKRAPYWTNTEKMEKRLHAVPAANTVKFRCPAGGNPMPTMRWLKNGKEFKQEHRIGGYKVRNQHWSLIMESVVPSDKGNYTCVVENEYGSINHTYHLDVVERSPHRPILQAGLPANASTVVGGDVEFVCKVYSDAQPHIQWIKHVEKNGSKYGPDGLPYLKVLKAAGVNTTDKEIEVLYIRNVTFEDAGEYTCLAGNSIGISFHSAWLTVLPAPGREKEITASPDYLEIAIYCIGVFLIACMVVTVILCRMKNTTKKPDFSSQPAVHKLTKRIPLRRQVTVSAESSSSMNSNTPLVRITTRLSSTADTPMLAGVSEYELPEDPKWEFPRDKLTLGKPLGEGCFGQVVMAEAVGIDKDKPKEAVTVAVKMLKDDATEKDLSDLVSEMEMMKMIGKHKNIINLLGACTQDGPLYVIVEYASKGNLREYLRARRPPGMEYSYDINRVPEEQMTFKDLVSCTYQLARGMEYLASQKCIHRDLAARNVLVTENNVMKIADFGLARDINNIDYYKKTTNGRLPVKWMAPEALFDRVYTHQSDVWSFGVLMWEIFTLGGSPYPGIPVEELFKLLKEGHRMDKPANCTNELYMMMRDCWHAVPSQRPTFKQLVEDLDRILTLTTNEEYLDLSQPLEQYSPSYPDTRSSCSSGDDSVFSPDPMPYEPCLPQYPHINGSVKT
Sequence of FGFR1 (P11362 22-822): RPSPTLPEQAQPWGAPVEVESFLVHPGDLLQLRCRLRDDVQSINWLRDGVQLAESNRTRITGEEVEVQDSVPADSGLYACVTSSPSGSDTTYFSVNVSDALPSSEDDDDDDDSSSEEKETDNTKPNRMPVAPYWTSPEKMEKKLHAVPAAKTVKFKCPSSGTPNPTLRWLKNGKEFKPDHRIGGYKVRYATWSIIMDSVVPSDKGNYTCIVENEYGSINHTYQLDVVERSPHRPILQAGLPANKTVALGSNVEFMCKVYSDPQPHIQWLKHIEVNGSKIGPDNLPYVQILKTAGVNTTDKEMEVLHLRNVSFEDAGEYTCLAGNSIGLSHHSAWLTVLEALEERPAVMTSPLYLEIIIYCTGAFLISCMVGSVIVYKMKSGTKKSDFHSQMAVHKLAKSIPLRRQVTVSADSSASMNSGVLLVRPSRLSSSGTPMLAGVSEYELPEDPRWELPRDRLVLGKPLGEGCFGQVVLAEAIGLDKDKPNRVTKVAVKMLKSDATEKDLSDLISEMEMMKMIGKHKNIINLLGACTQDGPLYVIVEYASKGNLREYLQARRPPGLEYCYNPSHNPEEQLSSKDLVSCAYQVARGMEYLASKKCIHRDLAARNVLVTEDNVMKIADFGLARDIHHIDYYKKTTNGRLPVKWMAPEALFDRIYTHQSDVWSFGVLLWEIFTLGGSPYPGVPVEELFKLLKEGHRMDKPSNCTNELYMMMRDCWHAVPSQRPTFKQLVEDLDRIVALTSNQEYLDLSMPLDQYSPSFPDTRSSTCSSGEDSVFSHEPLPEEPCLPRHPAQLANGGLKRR

Compound | IC50 [1] [nM] | IC50 [2] [nM] | IC50 [3] [nM] | FGFR1/FGFR4 [4] | FGFR2/FGFR4 [4] | FGFR3/FGFR4 [4] | IC50 ([4]; read-out: FGFR4 IC50) [nM]
C=CC(=O)Nc1cnn(CC(=O)NC)c1-c1cc2c(cn1)CN(c1c(F)c(OC)cc(OC)c1F)C(=O)C21CC1 [Example 20, N-(5-(2′-(2,6-difluoro-3,5-dimethoxyphenyl)-3′-oxo-2′,3′-dihydro-1′H-spiro[cyclopropane-1,4′-[2,7]naphthyridine]-6′-yl)-1-(2-(methylamino)-2-oxoethyl)-1H-pyrazol-4-yl)acrylamide] | > 200 | > 200 | > 200 | >50 | >100 | >100 | –
C=CC(=O)Nc1cnn(Cc2cnn(C)c2)c1-c1cc2c(cn1)CN(c1c(F)c(OC)cc(OC)c1F)C(=O)C21CC1 [Example 27, N-(5-(2′-(2,6-difluoro-3,5-dimethoxyphenyl)-3′-oxo-2′,3′-dihydro-1′H-spiro[cyclopropane-1,4′-[2,7]naphthyridine]-6′-yl)-1-((1-methyl-1H-pyrazol-4-yl)methyl)-1H-pyrazol-4-yl)acrylamide] | – | – | – | >100 | >100 | >100 | –
C=CC(=O)Nc1cnn(C[C@@H]2CCOC2)c1-c1cc2c(cn1)CN(c1c(F)c(OC)cc(OC)c1F)C(=O)C21CC1 [Example 28, (S)-N-(5-(2′-(2,6-difluoro-3,5-dimethoxyphenyl)-3′-oxo-2′,3′-dihydro-1′H-spiro[cyclopropane-1,4′-[2,7]naphthyridine]-6′-yl)-1-((tetrahydrofuran-3-yl)methyl)-1H-pyrazol-4-yl)acrylamide] | – | – | – | >100 | >100 | >100 | –
C=CC(=O)Nc1cnn(C[C@H]2CCOC2)c1-c1cc2c(cn1)CN(c1c(F)c(OC)cc(OC)c1F)C(=O)C21CC1 [Example 29, (R)-N-(5-(2′-(2,6-difluoro-3,5-dimethoxyphenyl)-3′-oxo-2′,3′-dihydro-1′H-spiro[cyclopropane-1,4′-[2,7]naphthyridine]-6′-yl)-1-((tetrahydrofuran-3-yl)methyl)-1H-pyrazol-4-yl)acrylamide] | – | – | – | >100 | >100 | >100 | –
C=CC(=O)Nc1cnn(C[C@H]2CCCO2)c1-c1cc2c(cn1)CN(c1c(F)c(OC)cc(OC)c1F)C(=O)C21CC1 [Example 30, (R)-N-(5-(2′-(2,6-difluoro-3,5-dimethoxyphenyl)-3′-oxo-2′,3′-dihydro-1′H-spiro[cyclopropane-1,4′-[2,7]naphthyridine]-6′-yl)-1-((tetrahydrofuran-2-yl)methyl)-1H-pyrazol-4-yl)acrylamide] | – | – | – | >100 | >100 | >100 | –
C=CC(=O)Nc1cnn(C[C@@H]2CCCO2)c1-c1cc2c(cn1)CN(c1c(F)c(OC)cc(OC)c1F)C(=O)C21CC1 [Example 31, (S)-N-(5-(2′-(2,6-difluoro-3,5-dimethoxyphenyl)-3′-oxo-2′,3′-dihydro-1′H-spiro[cyclopropane-1,4′-[2,7]naphthyridine]-6′-yl)-1-((tetrahydrofuran-2-yl)methyl)-1H-pyrazol-4-yl)acrylamide] | > 200 | > 200 | > 200 | >100 | >100 | >100 | < 10
C=CC(=O)Nc1cn(CCOC)nc1-c1cc2c(cn1)CN(c1c(F)c(OC)cc(OC)c1F)C(=O)C21CC1 [Example 32, N-(3-(2′-(2,6-difluoro-3,5-dimethoxyphenyl)-3′-oxo-2′,3′-dihydro-1′H-spiro[cyclopropane-1,4′-[2,7]naphthyridine]-6′-yl)-1-(2-methoxyethyl)-1H-pyrazol-4-yl)acrylamide] | – | – | – | >100 | >100 | >100 | –
C=CC(=O)Nc1cn(CCOC(F)(F)F)nc1-c1cc2c(cn1)CN(c1c(F)c(OC)cc(OC)c1F)C(=O)C21CC1 [Example 33, N-(3-(2′-(2,6-difluoro-3,5-dimethoxyphenyl)-3′-oxo-2′,3′-dihydro-1′H-spiro[cyclopropane-1,4′-[2,7]naphthyridine]-6′-yl)-1-(2-(trifluoromethoxy)ethyl)-1H-pyrazol-4-yl)acrylamide] | – | – | – | >100 | >100 | >100 | –
C=CC(=O)Nc1cn(CCN2CCOCC2)nc1-c1cc2c(cn1)CN(c1c(F)c(OC)cc(OC)c1F)C(=O)C21CC1 [Example 34, N-(3-(2′-(2,6-difluoro-3,5-dimethoxyphenyl)-3′-oxo-2′,3′-dihydro-1′H-spiro[cyclopropane-1,4′-[2,7]naphthyridine]-6′-yl)-1-(2-morpholinoethyl)-1H-pyrazol-4-yl)acrylamide] | – | – | – | >100 | >100 | >100 | –
C=CC(=O)Nc1cn(CC2CCOCC2)nc1-c1cc2c(cn1)CN(c1c(F)c(OC)cc(OC)c1F)C(=O)C21CC1 [Example 35, N-(3-(2′-(2,6-difluoro-3,5-dimethoxyphenyl)-3′-oxo-2′,3′-dihydro-1′H-spiro[cyclopropane-1,4′-[2,7]naphthyridine]-6′-yl)-1-((tetrahydro-2H-pyran-4-yl)methyl)-1H-pyrazol-4-yl)acrylamide] | – | – | – | >100 | >100 | >100 | –
C=CC(=O)Nc1cn(CC(=O)N(C)C)nc1-c1cc2c(cn1)CN(c1c(F)c(OC)cc(OC)c1F)C(=O)C21CC1 [Example 36, N-(3-(2′-(2,6-difluoro-3,5-dimethoxyphenyl)-3′-oxo-2′,3′-dihydro-1′H-spiro[cyclopropane-1,4′-[2,7]naphthyridine]-6′-yl)-1-(2-(dimethylamino)-2-oxoethyl)-1H-pyrazol-4-yl)acrylamide] | – | – | – | >100 | >100 | >100 | –
C=CC(=O)Nc1ccc(C)c(-c2ncc3c(n2)C2(CC2)C(=O)N(c2c(F)c(OC)cc(OC)c2F)C3)c1 [Example 37, N-(3-(6′-(2,6-difluoro-3,5-dimethoxyphenyl)-7′-oxo-6′,7′-dihydro-5′H-spiro[cyclopropane-1,8′-pyrido[4,3-d]pyrimidine]-2′-yl)-4-methylphenyl)acrylamide] | – | – | – | >100 | >100 | >100 | –

Reference: US10016438B2, “Bicyclic heterocycles as FGFR4 inhibitors” (Incyte Corporation, priority 2015, dated 2018)
